Source: patent US20130345254A1, “CYCLOHEXANE SUBSTITUTED AMINO CYCLOPENTANE DERIVATIVES AS USEFUL CCR2 ANTAGONISTS” (priority 2011, published 2013)

Molecular target: T1, human CCR2 (Homo sapiens, UniProt P41597)
T1 construct: expressed in transfected cells; host or cells: Ba/F3 cells (membrane preparation)
Experiment: CCR2 membrane binding assay (SPA, 125I-rhMCP-1 competition)
Conditions: membranes from Ba/F3 cells transfected with human CCR2; 0.03 nM 125I-rhMCP-1; 4 h room temperature
Experimental: The radio-ligand binding assay was done using scintillation proximity assay (SPA) technology. Briefly, membranes (1 μg per assay point) from Ba/F3 cells transfected with human CCR2, and wheat germ agglutinin-coated SPA beads (80 μg per point; Amersham, Arlington Heights, Ill.), were pre-incubated for 30 min at room temperature in CCR2 buffer (50 mM HEPES (pH=7.4), 10 mM MgCl2, 10 mM NaCl, 1 mM CaCL2, 0.1% BSA, 10 μg/ml Saponin). At this point pre-bound SPA bead, membrane complex was incubated at room temperature for 4 h with varying concentrations of punitive CCR2 antagonists (in 1% DMSO, final) and 0.03 nM ^125I-rhMCP-1 in CCR2 Buffer (S.A. 2200 Ci/mmol, PerkinElmer Life and Analytical Science, Boston, Mass.; NEX332). Binding competition was measured using a 1450 Microbeta Trilux counter (Wallac, Gaithersburg, Md.). Binding constants (IC50 and slope) were calculated using GraphPad Prism software (GraphPad Software, Inc., La Jolla Calif.).

T1 sequence (P41597 whole entry): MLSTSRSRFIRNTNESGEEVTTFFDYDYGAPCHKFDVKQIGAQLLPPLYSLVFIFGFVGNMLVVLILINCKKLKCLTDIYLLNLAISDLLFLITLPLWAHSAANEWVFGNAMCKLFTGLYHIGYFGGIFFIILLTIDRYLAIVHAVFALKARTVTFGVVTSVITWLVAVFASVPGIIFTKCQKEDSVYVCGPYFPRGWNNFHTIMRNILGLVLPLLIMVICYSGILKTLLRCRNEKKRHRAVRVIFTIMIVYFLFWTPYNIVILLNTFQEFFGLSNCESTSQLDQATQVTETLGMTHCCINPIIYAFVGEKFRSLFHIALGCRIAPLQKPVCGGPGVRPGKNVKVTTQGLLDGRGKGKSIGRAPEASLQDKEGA

Row | IC50 [nM] | SMILES
1 | 9 | CC=C1CCC(N[C@@H]2CC[C@@](C(=O)N3CCc4ncc(C(F)(F)F)cc4C3)(C(C)C)C2)CC1 (some centres unmarked) [Compound 2]
2 | 2100 | CC=C1CCC(N[C@@H]2CC[C@H](C(=O)NCc3cc(C(F)(F)F)cc(C(F)(F)F)c3)C2)CC1 (some centres unmarked) [Compound 1]
